# Data reported in US12491185B2, “Inhibitors of mPTP” (NRG Therapeutics Ltd, priority 2023, dated 2025).
# Tested on: mPTP
# Assay: mPTP activity (Ca2+ retention) assay in isolated rat liver mitochondria
# Format: biochemical
# Conditions: examples tested by different contract research organisations, believed comparable
# From the text: Pharmacological inhibition or modulation of the mPTP can be measured in well characterised ‘Ca^2+ retention’ assays performed in isolated mitochondria. In vitro, isolated mitochondria rapidly sequester exogenous Ca^2+ until the intramitochondrial Ca^2+ concentration reaches the threshold for mPTP activation. Once the pore is activated, mitochondrial integrity is compromised and the stored Ca^2+ is released. The distribution of Ca^2+ between extra- and intra-mitochondrial compartments can be measured in real time with the use of membrane-impermeant Ca^2+ sensitive fluorescent dyes. Depending on the configuration of the assay, inhibition or modulation of the mPTP either delays the opening of the pore or increases the concentration of Ca^2+ required to induce mPTP opening.
# MPTP activity was measured in mitochondria freshly isolated from female Sprague Dawley (250 to 300 gram) rat livers using the following method. Cervical dislocation was performed on the rat. The liver was then perfused in-situ with −40 ml cold Dulbecco's Phosphate Buffered Saline (DPBS) prior to dissection and transferred into 30 ml Isolation Buffer (250 mM Sucrose, 10 mM KCl, 1 mM EGTA, 1 mM EDTA, 25 mM HEPES, adjusted to pH 7.5 with 1M NaOH). Each lobe of the liver was then removed from the buffer, minced using tweezers and a scalpel into −5 mm pieces then transferred into a 50 ml Potterton dounce homogenization tube on ice containing 30 ml ice-cold centrifugation buffer (300 mM Trehalose, 25 mM HEPES, 1 mM EGTA, 1 mM EDTA, 10 mM KCl, adjusted to pH 7.5 with 1M NaOH and supplemented with 0.1% bovine serum albumin (BSA) and complete protease inhibitor cocktail (one tablet of inhibitor per 50 mls of buffer). Homogenisation was carried out using a teflon pestle at 1800 rpm. The slurry was centrifuged at 800 g for 10 min at 4° C., then the supernatant centrifuged at 10,000 g for 10 min. The pellet was washed once with FLIPR assay buffer (75 mM Mannitol, 25 mM Sucrose, 5 mM Potassium Phosphate Monobasic, 20 mM Tris base, 100 mM KCl, 0.1% BSA adjusted to pH 7.4 with 5M HCl) centrifuged again, then resuspended in FLIPR assay buffer to a concentration of 8.8 mg/ml protein.
# Tested compounds (10 mM stock in DMSO) were serially diluted in DMSO in half log steps to generate 10 test concentrations (final concentrations in assay 30 μM to 1 nM). An intermediate dilution of 5 μl DMSO samples into 247 μl FLIPR assay buffer was carried out prior to transfer of 5 μl into duplicate wells of a 384 well polypropylene assay plate. Control wells were 0.5% (v/v) DMSO and 5 μM cyclosporin A.
# A stock mitochondria/Fluo5N assay solution was prepared in 5.6 ml FLIPR assay buffer (at RT) supplemented with succinate disodium salt (10 mM), rotenone (1 μM), Fluo5N pentapotassium salt (2 μM) and 1 ml mitochondria suspension, then transferred (15 μl) into the assay plate containing test compounds and incubated for 10 min at RT. Assay plates were processed for fluorescence detection on either a FLIPR Tetra (Molecular Devices) or CLARIOstar (BMG) plate reader. For kinetic fluorescence detection on the FLIPR, dye fluorescence was measured every 3 sec for a total of 10 min. After 12 sec, a 2.5 μl bolus of CaCl2 (75 μM) was added from a source plate containing 675 μM CaCl2 in FLIPR assay buffer. Alternatively, the 2.5 μl addition of CaCl2 was performed using a Viaflow 384, plates were incubated at RT for 10 min, and dye fluorescence measured after 10 min on the CLARIOstar plate reader. pIC50 values for tested compounds were calculated using the fluorescence value collected at the 10 min timepoint on either plate reader, with % inhibition calculated using the DMSO control and cyclosporin A values as 0 and 100% respectively.
row,SMILES,mPTP Rat liver pIC50
1,"Cc1cccc(CC2(CNC(=O)c3nn(C)c(=O)[nH]3)CCC2)c1F [Example 94, N-((1-(2-Fluoro-3-methylbenzyl)cyclobutyl)methyl)-1-methyl-5-oxo-4,5-dihydro-1H-1,2,4-triazole-3-carboxamide]",5.77
2,"CC[C@@H](Cc1ccccc1)[C@H](C)NC(=O)c1nn(C)c(=O)[nH]1 [Example 74, N-((2S,3S)-3-benzylpentan-2-yl)-1-methyl-5-oxo-4,5-dihydro-1H-1,2,4-triazole-3-carboxamide]",5.98
3,"Cn1nc(C(=O)NC[C@@H](Cc2ccc(F)cc2F)C2CC2)[nH]c1=O [Example 97, (S)—N-(2-cyclopropyl-3-(2,4-difluorophenyl)propyl)-1-methyl-5-oxo-4,5-dihydro-1H-1,2,4-triazole-3-carboxamide]",5.66
4,"Cc1cc(Cl)ccc1CC1(CNC(=O)c2nn(C)c(=O)[nH]2)CCC1 [Example 91, N-((1-(4-Chloro-2-methylbenzyl)cyclobutyl)methyl)-1-methyl-5-oxo-4,5-dihydro-1H-1,2,4-triazole-3-carboxamide]",5.75
5,"Cn1nc(C(=O)NCC2(Cc3ccc(F)cc3F)CCCCC2)[nH]c1=O [Example 73, N-((1-(2,4-Difluorobenzyl)cyclohexyl)methyl)-1-methyl-5-oxo-4,5-dihydro-1H-1,2,4-triazole-3-carboxamide]",5.84
6,"Cn1nc(C(=O)NCC2(Cc3cccc(C4CC4)c3)CCC2)[nH]c1=O [Example 77, N-((1-(3-Cyclopropylbenzyl)cyclobutyl)methyl)-1-methyl-5-oxo-4,5-dihydro-1H-1,2,4-triazole-3-carboxamide]",4.78
7,"O=C(NCC1(Cc2ccccc2)CCC1)c1noc(=O)[nH]1 [Example 88, N-((1-Benzylcyclobutyl)methyl)-5-oxo-4,5-dihydro-1,2,4-oxadiazole-3-carboxamide]",5.28
8,"Cn1nc(C(=O)NCC2(Cc3cccc(Cl)c3F)CCC2)[nH]c1=O [Example 85, N-((1-(3-Chloro-2-fluorobenzyl)cyclobutyl)methyl)-1-methyl-5-oxo-4,5-dihydro-1H-1,2,4-triazole-3-carboxamide]",5.83
9,"CC(C)C(CNC(=O)c1nn(C)c(=O)[nH]1)Cc1ccccc1 (stereo not drawn) [Example 45, N-(2-benzyl-3-methylbutyl)-1-methyl-5-oxo-4,5-dihydro-1H-1,2,4-triazole-3-carboxamide]",6.50
10,CC(CNC(=O)c1nccc(=O)[nH]1)(Cc1ccc(F)cc1F)C1CC1 (stereo not drawn) [Example 187],6.53
11,"CCc1ccccc1CC1(CNC(=O)c2nn(C)c(=O)[nH]2)CCC1 [Example 82, N-((1-(2-Ethylbenzyl)cyclobutyl)methyl)-1-methyl-5-oxo-4,5-dihydro-1H-1,2,4-triazole-3-carboxamide]",5.27
12,"CC(NC(=O)c1nn(C)c(=O)[nH]1)C(C)(C)Cc1ccccc1 (single isomer, unassigned) [Example 39A, N-(3,3-dimethyl-4-phenylbutan-2-yl)-1-methyl-5-oxo-4,5-dihydro-1H-1,2,4-triazole-3-carboxamide]",<4.57
13,Cn1nc(C(=O)NCC2(C)Cc3ccccc3C2)[nH]c1=O [Example 58],5.03
14,"CCCC(CNC(=O)c1nn(C)c(=O)[nH]1)Cc1ccccc1 (stereo not drawn) [Example 55, N-(2-benzylpentyl)-1-methyl-5-oxo-4,5-dihydro-1H-1,2,4-triazole-3-carboxamide]",5.44
15,"O=C(NCC1(Cc2ccccc2)CCC1)c1ccnc(=O)[nH]1 [Example 6, N-((1-benzylcyclobutyl)methyl)-2-oxo-2,3-dihydropyrimidine-4-carboxamide]",5.13

# Now from value to compound:
row,mPTP Rat liver pIC50,SMILES
1,6.45,"CCC(F)(CNC(=O)c1nn(C)c(=O)[nH]1)Cc1ccc(F)cc1F (stereo not drawn) [Example 129, N-(2-(2,4-difluorobenzyl)-2-fluorobutyl)-1-methyl-5-oxo-4,5-dihydro-1H-1,2,4-triazole-3-carboxamide]"
2,6.58,O=C(NCC1(Cc2cc(F)c(F)cc2F)CCC1)c1cncc(=O)[nH]1 [Example 148]
3,<4.57,O=C(NCC1(Cc2cccc(F)c2)CCC1)c1cnn[nH]1 [Example 167]
4,6.31,O=C(NCC1(Cc2ccc(F)cc2F)CC12CC2)c1cncc(=O)[nH]1 (stereo not drawn) [Example 122]
5,6.55,CCC(CC)(CNC(=O)c1nn(C)c(=O)[nH]1)Cc1ccc(F)cc1F [Example 199]
6,<4.57,O=C(NCC1(Cc2ccc(F)cc2F)CCC1)c1cc(=O)[nH]s1 [Example 201]
7,5.26,"CCc1cccc(CC2(CNC(=O)c3nn(C)c(=O)[nH]3)CCC2)c1 [Example 162, N-((1-(3-ethylbenzyl)cyclobutyl)methyl)-1-methyl-5-oxo-4,5-dihydro-1H-1,2,4-triazole-3-carboxamide]"
8,6.07,"Cc1cc(F)ccc1CC1(CNC(=O)c2nccc(=O)[nH]2)CCC1 [Example 168, N-((1-(4-fluoro-2-methylbenzyl)cyclobutyl)methyl)-6-oxo-1,6-dihydropyrimidine-2-carboxamide]"
9,<4.57,"O=C(NCC1(Cc2ccc(F)cc2F)CCC1)c1cnc[nH]c1=O [Example 213, N-((1-(2,4-difluorobenzyl)cyclobutyl)methyl)-6-oxo-1,6-dihydropyrimidine-5-carboxamide]"
10,<4.57,"Cn1nc(C(=O)NCC2Cc3ccccc3O2)[nH]c1=O (stereo not drawn) [Reference Example 114, N-((2,3-dihydrobenzofuran-2-yl)methyl)-1-methyl-5-oxo-4,5-dihydro-1H-1,2,4-triazole-3-carboxamide]"
11,6.47,O=C(NC[C@H](Cc1ccc(F)c(F)c1)C1CC1)c1cncc(=O)[nH]1 [Example 143]
12,<4.52,O=C(NCC(Cc1ccc(F)cc1Cl)C1CC1)c1nccc(=O)[nH]1 (stereo not drawn) [Example 214]
13,<4.57,"CCC(CNC(=O)c1nn(C)c(=O)[nH]1)Cc1cnn(C)c1 (stereo not drawn) [Example 113, 1-methyl-N-(2-((1-methyl-1H-pyrazol-4-yl)methyl)butyl)-5-oxo-4,5-dihydro-1H-1,2,4-triazole-3-carboxamide]"
14,5.54,O=C(NC[C@H](Cc1ccc(F)cc1F)C1CC1)c1cncc(=O)[nH]1 [Example 154]
15,<4.57,"Cn1nc(C(=O)NCC2(Cc3ccc(C(F)(F)F)cc3F)CCC2)[nH]c1=O [Example 104, N-((1-(2-fluoro-4-(trifluoromethyl)benzyl)cyclobutyl)methyl)-1-methyl-5-oxo-4,5-dihydro-1H-1,2,4-triazole-3-carboxamide]"
16,6.76,Cn1nc(C(=O)NC[C@H](Cc2ccccc2)C2CC2)[nH]c1=O [Example 124]
17,<4.57,"O=C(NCC1(Cc2ccc(F)cc2F)CCC1)c1nnc(C(F)(F)F)[nH]1 [Example 105, N-((1-(2,4-difluorobenzyl)cyclobutyl)methyl)-5-(trifluoromethyl)-4H-1,2,4-triazole-3-carboxamide]"
18,<4.57,O=C(NCC1(Cc2ccc(F)cc2F)CCC1)c1cn[nH]c(=O)c1 [Example 127]
19,<4.57,Cn1nc(C(=O)NCC2(Cc3ccc(F)cc3F)CCC(F)(F)CC2)[nH]c1=O [Example 197]
20,4.87,O=C(NCC1(Cc2cccc(F)c2)CCC1)c1nnc[nH]1 [Example 171]
21,<4.57,"Cn1nc(C(=O)NCC2(Cc3cccc(C(F)(F)F)c3)CCC2)[nH]c1=O [Example 110, 1-methyl-5-oxo-N-((1-(3-(trifluoromethyl)benzyl)cyclobutyl)methyl)-4,5-dihydro-1H-1,2,4-triazole-3-carboxamide]"
